Tests used:
Acetylcholinesterase = Acetylcholinesterase (Homo sapiens, UniProt P22303); assay: Inhibition of AChE (unknown origin) after 10 min by Ellmans method
[1] = Cytotoxicity against Homo sapiens (human) THLE2 cells assessed as cell death at 10 uM after 48 hr by MTT assay; assay type: cell-based; details: thle-2, 48 h
in vitro [2] = details: human, THLE2 cells
Description: Cytotoxicity against Homo sapiens (human) THLE2 cells assessed as viable cells at 10 uM after 48 hr by MTT assay

in vitro [3] = details: human, THLE2 cells; remark: listed apart in the source
Description: Cytotoxicity against Homo sapiens (human) THLE2 cells assessed as viable cells at 1 uM after 48 hr by MTT assay

in vitro [4] = details: human, THLE2 cells; remark: listed apart in the source
Description: Cytotoxicity against Homo sapiens (human) THLE2 cells assessed as viable cells at 0.5 uM after 48 hr by MTT assay

Acetylcholinesterase, sequence (P22303 whole entry): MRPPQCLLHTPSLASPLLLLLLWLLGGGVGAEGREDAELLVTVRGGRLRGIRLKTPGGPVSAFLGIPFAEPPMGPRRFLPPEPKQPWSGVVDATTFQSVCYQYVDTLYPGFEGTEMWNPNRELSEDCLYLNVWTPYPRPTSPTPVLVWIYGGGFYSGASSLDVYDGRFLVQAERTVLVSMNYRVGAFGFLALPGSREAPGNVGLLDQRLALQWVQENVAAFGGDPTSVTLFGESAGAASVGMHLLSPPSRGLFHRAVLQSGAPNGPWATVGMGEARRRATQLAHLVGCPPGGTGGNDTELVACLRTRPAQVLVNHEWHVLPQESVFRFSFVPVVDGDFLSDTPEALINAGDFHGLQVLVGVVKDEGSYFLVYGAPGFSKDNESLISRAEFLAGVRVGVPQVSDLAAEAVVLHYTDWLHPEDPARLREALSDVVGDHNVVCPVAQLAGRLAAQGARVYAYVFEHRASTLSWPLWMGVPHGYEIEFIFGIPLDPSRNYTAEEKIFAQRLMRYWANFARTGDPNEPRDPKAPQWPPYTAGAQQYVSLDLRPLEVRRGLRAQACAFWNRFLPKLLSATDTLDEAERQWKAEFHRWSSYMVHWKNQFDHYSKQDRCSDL

| Compound | IC50 (Acetylcholinesterase) [µM] | further results |
| --- | --- | --- |
| Nc1cc(-c2ccccc2)nc2nc(-c3ccccc3)cc(C(F)(F)F)c12 | 7.1 |  |
| Nc1cc(-c2cccc(F)c2)nc2nc(-c3ccccc3)cc(C(F)(F)F)c12 | 7.03 |  |
| Nc1cc(-c2ccc(F)cc2)nc2nc(-c3ccccc3)cc(C(F)(F)F)c12 | 6.58 |  |
| Nc1cc(-c2ccc(Cl)cc2)nc2nc(-c3ccccc3)cc(C(F)(F)F)c12 | 0.52 | Activity [1]: 16%; viability at 48 h, 10 µM (in vitro [2]): 84.2%; viability at 48 h, 1 µM (in vitro [3]): 98.1%; viability at 48 h, 0.5 µM (in vitro [4]): 97.1% |
| Nc1cc(-c2ccccc2Br)nc2nc(-c3ccccc3)cc(C(F)(F)F)c12 | 0.89 | viability at 48 h, 10 µM (in vitro [2]): 99.9%; viability at 48 h, 1 µM (in vitro [3]): 95.9%; viability at 48 h, 0.5 µM (in vitro [4]): 98.7% |
| COc1ccc(-c2cc(N)c3c(C(F)(F)F)cc(-c4ccccc4)nc3n2)cc1 | 8.24 |  |
| Nc1cc(-c2cccs2)nc2nc(-c3ccccc3)cc(C(F)(F)F)c12 | 10.4 |  |
| CC(C)Cc1cc(N)c2c(C(F)(F)F)cc(-c3ccccc3)nc2n1 | 19.1 |  |
| Nc1c2c(nc3nc(-c4ccccc4)cc(C(F)(F)F)c13)CCC2 | 8.05 |  |
| Nc1c2c(nc3nc(-c4ccccc4)cc(C(F)(F)F)c13)CCCC2 | 0.35 |  |
| Nc1c2c(nc3nc(-c4ccccc4)cc(C(F)(F)F)c13)CCCCC2 | 10.1 |  |
| Nc1c2c(nc3nc(-c4ccccc4)cc(C(F)(F)F)c13)CCCCCC2 | 7.69 |  |
| CC1Cc2nc3nc(-c4ccccc4)cc(C(F)(F)F)c3c(N)c2C1 (centres undefined) | 9.37 |  |
| CC1CCc2c(nc3nc(-c4ccccc4)cc(C(F)(F)F)c3c2N)C1 (centres undefined) | 3.25 |  |
| CC1CCc2nc3nc(-c4ccccc4)cc(C(F)(F)F)c3c(N)c2C1 (centres undefined) | 0.51 |  |
| Nc1c2c(nc3nc(-c4ccccc4)cc(C(F)(F)F)c13)-c1ccccc1C2 | 17.6 |  |
| Nc1c2c(nc3nc(-c4ccccc4)cc(C(F)(F)F)c13)-c1ccccc1CC2 | 23.1 |  |

Source: ChEMBL document CHEMBL3044866, “A facile and single pot strategy for the synthesis of novel naphthyridine derivatives under microwave irradiation conditions using ZnCl2 as catalyst, evaluation of AChE inhibitory activity, and molecular modeling studies” (Med Chem Res, 2012)
